From US9802941B2, “Compounds and methods for inhibiting histone demethylases” (Gilead Sciences, Inc., priority 2014, dated 2017)
pIC50: −log10 of the molar value. Read-outs that look alike come from different tables or passages of the source.

Tests used:
Assay type in all cases: biochemical
[1] = target: T1, KDM4C (JMJD2C) (Homo sapiens, UniProt Q9H3R0); assay: Histone lysine demethylase AlphaLISA assay, KDM4C
T1 construct: KDM4C; BRIC, Denmark; 1-349; E. coli; host or cells: E. coli
T1 sequence (Q9H3R0 1-349): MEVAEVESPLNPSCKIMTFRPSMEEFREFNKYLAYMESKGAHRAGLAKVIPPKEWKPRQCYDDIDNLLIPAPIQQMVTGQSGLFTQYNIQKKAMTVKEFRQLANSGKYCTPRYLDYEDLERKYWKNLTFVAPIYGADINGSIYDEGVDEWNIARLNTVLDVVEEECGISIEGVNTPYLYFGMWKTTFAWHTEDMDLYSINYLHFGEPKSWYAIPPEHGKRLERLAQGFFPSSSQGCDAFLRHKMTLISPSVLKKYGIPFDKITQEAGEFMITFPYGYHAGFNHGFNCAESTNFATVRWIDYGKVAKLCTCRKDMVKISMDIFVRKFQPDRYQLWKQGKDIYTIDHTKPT
Method in brief: (§1)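 Enzyme was preincubated in buffer (50 mM Hepes pH 7.4-8.0, 0.003-0.01% Tween-20, 0.1% BSA, 5 μM (NH4)2Fe(SO4)2), then added to compound in DMSO and incubated 10 minutes before substrate. After reaction at room temperature, acceptor and streptavidin donor beads were added and AlphaLISA signal read.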

[2] = target: T2, KDM2B (FBXL10) (Homo sapiens, UniProt Q8NHM5); assay: Histone lysine demethylase AlphaLISA assay, KDM2B
T2 construct: KDM2B; BPS,; 1-650; Bac; purchased BPS Bioscience, US; host or cells: baculovirus system
T2 sequence (Q8NHM5 1-650): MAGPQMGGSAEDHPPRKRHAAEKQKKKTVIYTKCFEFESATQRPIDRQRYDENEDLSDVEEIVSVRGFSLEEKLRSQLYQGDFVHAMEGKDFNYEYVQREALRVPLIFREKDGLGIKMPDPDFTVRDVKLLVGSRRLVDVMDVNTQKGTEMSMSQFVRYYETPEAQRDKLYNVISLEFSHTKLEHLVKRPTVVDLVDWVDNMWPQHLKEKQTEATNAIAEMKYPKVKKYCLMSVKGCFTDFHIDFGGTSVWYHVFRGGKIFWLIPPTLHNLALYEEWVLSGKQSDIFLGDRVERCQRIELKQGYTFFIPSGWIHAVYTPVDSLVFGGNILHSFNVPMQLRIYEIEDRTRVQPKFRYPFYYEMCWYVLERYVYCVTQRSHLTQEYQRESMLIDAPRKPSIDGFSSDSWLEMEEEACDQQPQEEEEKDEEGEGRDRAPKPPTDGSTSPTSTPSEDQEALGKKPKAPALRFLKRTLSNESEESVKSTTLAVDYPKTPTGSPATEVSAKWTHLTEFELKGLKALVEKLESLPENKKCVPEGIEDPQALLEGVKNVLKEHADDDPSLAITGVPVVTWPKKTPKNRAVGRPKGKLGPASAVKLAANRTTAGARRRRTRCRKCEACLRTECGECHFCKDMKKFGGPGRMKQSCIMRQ
Method in brief: as §1

[3] = target: T3, PHF8 (KDM7) (Homo sapiens, UniProt Q9UPP1); assay: Histone lysine demethylase AlphaLISA assay, PHF8
T3 construct: KDM7 (PHF8); BRIC; 1-1322; Bac
T3 sequence (Q9UPP1 37-440 limits assumed): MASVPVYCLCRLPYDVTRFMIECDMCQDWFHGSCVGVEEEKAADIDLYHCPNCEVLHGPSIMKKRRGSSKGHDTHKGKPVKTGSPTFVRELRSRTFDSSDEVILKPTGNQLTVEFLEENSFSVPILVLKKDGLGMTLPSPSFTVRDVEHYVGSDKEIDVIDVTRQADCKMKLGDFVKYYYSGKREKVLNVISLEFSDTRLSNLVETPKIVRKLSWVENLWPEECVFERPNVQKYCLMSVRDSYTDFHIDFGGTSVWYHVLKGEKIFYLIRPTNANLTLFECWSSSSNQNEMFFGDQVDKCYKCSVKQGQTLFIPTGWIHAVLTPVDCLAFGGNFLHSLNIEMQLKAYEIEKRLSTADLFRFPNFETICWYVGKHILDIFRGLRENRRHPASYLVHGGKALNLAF
Method in brief: as §1

[4] = target: T4, KDM6A (UTX) (Homo sapiens, UniProt O15550); assay: Histone lysine demethylase AlphaLISA assay, KDM6A
T4 construct: KDM6A (UTX); BRIC; 919-1401; E. coli; host or cells: E. coli
T4 sequence (O15550 919-1401): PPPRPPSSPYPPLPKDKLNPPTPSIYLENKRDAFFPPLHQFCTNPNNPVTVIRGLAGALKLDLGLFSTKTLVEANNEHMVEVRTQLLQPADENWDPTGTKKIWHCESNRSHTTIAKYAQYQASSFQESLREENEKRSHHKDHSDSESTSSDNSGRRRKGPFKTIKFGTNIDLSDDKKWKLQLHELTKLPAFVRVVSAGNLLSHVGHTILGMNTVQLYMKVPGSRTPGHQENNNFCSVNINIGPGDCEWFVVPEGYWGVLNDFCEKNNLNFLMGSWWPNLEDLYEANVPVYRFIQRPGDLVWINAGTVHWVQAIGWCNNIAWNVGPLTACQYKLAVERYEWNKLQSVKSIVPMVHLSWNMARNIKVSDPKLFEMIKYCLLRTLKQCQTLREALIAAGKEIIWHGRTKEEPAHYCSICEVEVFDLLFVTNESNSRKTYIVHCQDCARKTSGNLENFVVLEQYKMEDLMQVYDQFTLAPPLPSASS
Experimental: The compounds of the application, or a pharmaceutically acceptable salt, or solvate, or prodrug thereof, are tested in an in vitro AlphaLISA assay. Enzymes are dissolved in enzyme buffer and incubated before they are added to DMSO solutions of compounds of the application, or a pharmaceutically acceptable salt, or solvate, or prodrug thereof, in enzyme buffer. The reaction mixture is then incubated for an additional period of time before substrate solution is added and then the resulting mixture again incubated. Acceptor beads and suspended Epigenetic Buffer from stock are added and the suspension is again incubated before a suspension of streptavidin donor beads in Epigenetic Buffer is added. After an additional period of incubation, the plates are read.
The ability of compounds of the application to inhibit the histone lysine demethylase activity in vitro of different enzymes was determined.
The reaction mixture was incubated for another 10 minutes before 5 μL of substrate solution was added and the resulting mixture was then incubated at room temperature. […] After incubation at room temperature in the dark, the plates were read.
Enzyme Buffer: 50 mM Hepes (pH 7.4-8.0), 0.003-0.01% Tween-20, 0.1% BSA; 5 μM (NH4)2Fe(SO4)2.

[5] = target: T5, KDM5B (PLU-1) (Homo sapiens, UniProt Q9UGL1); assay: Histone lysine demethylase AlphaLISA assay, KDM5B
T5 construct: BRIC; 1-809; E. coli; host or cells: E. coli
T5 sequence (Q9UGL1 1-809): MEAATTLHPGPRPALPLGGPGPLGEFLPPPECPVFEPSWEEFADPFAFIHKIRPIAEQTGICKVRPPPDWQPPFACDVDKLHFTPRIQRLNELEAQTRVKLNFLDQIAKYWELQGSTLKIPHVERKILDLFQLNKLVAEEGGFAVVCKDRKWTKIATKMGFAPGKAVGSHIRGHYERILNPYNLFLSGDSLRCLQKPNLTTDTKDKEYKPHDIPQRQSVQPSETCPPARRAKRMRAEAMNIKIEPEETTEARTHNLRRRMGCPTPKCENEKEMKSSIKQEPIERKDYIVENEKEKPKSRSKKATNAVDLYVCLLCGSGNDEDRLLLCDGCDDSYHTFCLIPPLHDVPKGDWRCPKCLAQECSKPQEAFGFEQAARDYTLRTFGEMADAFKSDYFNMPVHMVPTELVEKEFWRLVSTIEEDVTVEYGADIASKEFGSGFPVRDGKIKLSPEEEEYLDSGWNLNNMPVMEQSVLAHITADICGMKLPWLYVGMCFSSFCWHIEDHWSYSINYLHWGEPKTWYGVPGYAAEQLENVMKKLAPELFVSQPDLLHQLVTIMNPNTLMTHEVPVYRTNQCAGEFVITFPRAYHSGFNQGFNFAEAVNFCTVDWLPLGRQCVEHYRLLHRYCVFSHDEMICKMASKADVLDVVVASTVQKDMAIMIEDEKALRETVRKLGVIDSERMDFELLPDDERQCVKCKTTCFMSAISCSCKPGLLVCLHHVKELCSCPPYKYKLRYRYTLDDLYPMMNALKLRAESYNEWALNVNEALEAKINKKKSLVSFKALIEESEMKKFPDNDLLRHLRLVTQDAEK
Method in brief: as §1

[6] = AlphaLISA, in vitro, read-out: HDME Inhibition KDM4C
[7] = AlphaLISA assay, read-out: HDME Inhibition KDM2B (IC50)
[8] = AlphaLISA, in vitro, read-out: HDME Inhibition KDM2B
[9] = AlphaLISA assay, read-out: HDME Inhibition PHF8 (IC50)
[10] = AlphaLISA, in vitro, read-out: HDME Inhibition PHF8
[11] = AlphaLISA assay, read-out: HDME Inhibition KDM6A (IC50)
[12] = AlphaLISA, in vitro, read-out: HDME Inhibition KDM6A
[13] = AlphaLISA assay, read-out: HDME Inhibition KDM4C (IC50)
[14] = AlphaLISA, in vitro, read-out: HDME Inhibition KDM5B
[15] = AlphaLISA assay, read-out: HDME Inhibition KDM5B (IC50)

## CCCC(C)c1cnc(CNCc2cc(C(=O)O)cc(C)n2)n1Cc1ccc(F)cc1 (stereo not shown) [Compound 10, 2-{[({1-[(4-fluorophenyl)methyl]-5-(pentan-2-yl)-1H-imidazole-2-yl}methyl)amino]methyl}-6-methylpyridine-4-carboxylic acid]
[1]; [6]
  pIC50: 5.86
[2]; [7]
  pIC50: < 5.00
[2]; [8]
  pIC50: < 5.00
[3]; [9]
  pIC50: < 5.00
[3]; [10]
  pIC50: < 5.00
[4]; [11]
  pIC50: < 5.00
[4]; [12]
  pIC50: < 5.00
[5]
  pIC50: 5.89

## Cc1cc(C(=O)O)cc(CNCCc2ncccc2Br)n1 [Compound 11, 2-({[2-(3-bromopyridin-2-yl)ethyl]amino}methyl)-6-methylpyridine-4-carboxylic acid]
[1]; [13]
  pIC50: < 5.00
[1]; [6]
  pIC50: < 5.00
[2]; [8]
  pIC50: 5.81
[3]; [10]
  pIC50: 5.16
[4]; [11]
  pIC50: < 5.00
[4]; [12]
  pIC50: < 5.00
[5]; [14]
  pIC50: 5.26

## C=Cc1cc(C(=O)O)cc(CNCc2nccn2Cc2ccc(F)cc2)n1 [Compound 12, 2-ethenyl-6-{[({1-[(4-fluorophenyl)methyl]-1H-imidazol-2-yl}methyl)amino]methyl}pyridine-4-carboxylic acid]
[1]; [13]
  pIC50: < 5.00
[1]; [6]
  pIC50: < 5.00
[2]; [8]
  pIC50: 5.80
[3]; [9]
  pIC50: < 5.00
[3]; [10]
  pIC50: < 5.00
[4]; [11]
  pIC50: < 5.00
[4]; [12]
  pIC50: < 5.00
[5]
  pIC50: 5.42

## CCc1cc(C(=O)O)cc(CNCc2nccn2Cc2ccc(F)cc2)n1 [Compound 13, 2-ethyl-6-{[({1-[(4-fluorophenyl)methyl]-1H-imidazol-2-yl}methyl)amino]methyl}pyridine-4-carboxylic acid]
[1]; [13]
  pIC50: < 5.00
[1]; [6]
  pIC50: < 5.00
[2]; [8]
  pIC50: 5.64
[3]; [10]
  pIC50: 5.24
[4]; [11]
  pIC50: < 5.00
[4]; [12]
  pIC50: < 5.00
[5]; [15]
  pIC50: < 5.00
[5]; [14]
  pIC50: < 5.00

## CCCCCCc1cccnc1CCNCc1cc(C(=O)O)cc(C)n1 [Compound 14, 2-({[2-(3-hexylpyridin-2-yl)ethyl]amino}methyl)-6-methylpyridine-4-carboxylic acid]
[1]; [13]
  pIC50: < 5.00
[1]; [6]
  pIC50: < 5.00
[2]; [8]
  pIC50: 5.49
[3]; [10]
  pIC50: 5.25
[4]; [11]
  pIC50: < 5.00
[4]; [12]
  pIC50: < 5.00
[5]; [15]
  pIC50: < 5.00
[5]; [14]
  pIC50: < 5.00

## CCCCc1cccnc1CCNCc1cc(C(=O)O)cc(C)n1 [Compound 15, 2-({[2-(3-butylpyridin-2-yl)ethyl]amino}methyl)-6-methylpyridine-4-carboxylic acid]
[1]; [13]
  pIC50: < 5.00
[1]; [6]
  pIC50: < 5.00
[2]; [8]
  pIC50: 5.25
[3]; [9]
  pIC50: < 5.22
[3]; [10]
  pIC50: < 5.22
[4]; [11]
  pIC50: < 5.00
[4]; [12]
  pIC50: < 5.00
[5]; [15]
  pIC50: < 5.00
[5]; [14]
  pIC50: < 5.00

## CCCCCc1cccnc1CCNCc1cc(C(=O)O)cc(C)n1 [Compound 16, 2-methyl-6-({[2-(3-pentylpyridin-2-yl)ethyl]amino}methyl)pyridine-4-carboxylic acid]
[1]; [13]
  pIC50: < 5.00
[1]; [6]
  pIC50: < 5.00
[2]; [7]
  pIC50: < 5.17
[2]; [8]
  pIC50: < 5.17
[3]; [10]
  pIC50: 5.46
[4]; [11]
  pIC50: < 5.05
[4]; [12]
  pIC50: < 5.05
[5]; [15]
  pIC50: < 5.00
[5]; [14]
  pIC50: < 5.00

## COc1ccc(CCn2ccnc2CNCc2cc(C(=O)O)cc(C)n2)cc1 [Compound 17, 2-{[({1-[2-(4-methoxyphenyl)ethyl]-1H-imidazol-2-yl}methyl)amino]methyl}-6-methylpyridine-4-carboxylic acid]
[1]; [13]
  pIC50: < 5.00
[1]; [6]
  pIC50: < 5.00
[2]; [7]
  pIC50: < 5.00
[2]; [8]
  pIC50: < 5.00
[3]; [9]
  pIC50: < 5.00
[3]; [10]
  pIC50: < 5.00
[4]; [11]
  pIC50: < 5.00
[4]; [12]
  pIC50: < 5.00
[5]; [15]
  pIC50: < 5.00
[5]; [14]
  pIC50: < 5.00

## Cc1cc(C(=O)O)cc(CNCc2nccn2CCC(C)C)n1 [Compound 18, 2-methyl-6-[({[1-(3-methylbutyl)-1H-imidazol-2-yl]methyl}amino)methyl]pyridine-4-carboxylic acid]
[1]; [13]
  pIC50: < 5.00
[1]; [6]
  pIC50: < 5.00
[2]; [8]
  pIC50: 5.41
[3]; [10]
  pIC50: 5.52
[4]; [11]
  pIC50: < 5.00
[4]; [12]
  pIC50: < 5.00
[5]; [15]
  pIC50: < 5.00
[5]; [14]
  pIC50: < 5.00

## Cc1cc(C(=O)O)cc(CNC2CCCc3cccnc32)n1 (stereo not shown) [Compound 19, 2-methyl-6-{[(5,6,7,8-tetrahydroquinolin-8-yl)amino]methyl}pyridine-4-carboxylic acid]
[1]; [13]
  pIC50: < 5.00
[1]; [6]
  pIC50: < 5.00
[2]; [8]
  pIC50: 5.94
[3]; [10]
  pIC50: 6.05
[4]; [11]
  pIC50: < 5.00
[4]; [12]
  pIC50: < 5.00
[5]; [14]
  pIC50: 6.46
